In US7390806B2, “Antibiotics containing borinic acid complexes and methods of use” (Anacor Pharmaceuticals, Inc., priority 2002, dated 2008):
Values after ≈ are worked out from the molar mass of the structure shown.

Legend:
M. tuberculosis P1SP2 = test: Anti-mycobacterium in vitro activity, P1SP2; format: cell-based, Mycobacterium tuberculosis; details: Multi-drug resistant strain; for MIC: Mycobacterium tuberculosis, P1SP2
M. tuberculosis P2SP1 = test: Anti-mycobacterium in vitro activity, P2SP1; format: cell-based, Mycobacterium tuberculosis; details: Multi-drug resistant strain; for MIC: Mycobacterium tuberculosis, P2SP1

Row | SMILES | M. tuberculosis MIC P1SP2 (M. tuberculosis P1SP2) | M. tuberculosis MIC P2SP1 (M. tuberculosis P2SP1) | MIC (M. tuberculosis P1SP2) | MIC (M. tuberculosis P2SP1)
1 | Oc1cccc2cccnc12 [Compound 10, 8-hydroxyquinoline] | 0.387 µg/mL | 0.387 µg/mL |  | 
2 | Oc1cccc2cccnc12 [Compound 50, 8-hydroxyquinoline] | 0.387 µg/mL | 0.387 µg/mL |  | 
3 | Oc1cccc2cccnc12 [Compound 51, 8-hydroxyquinoline] | 0.387 µg/mL | 0.387 µg/mL |  | 
4 | Oc1cccc2cccnc12 [Compound 53, 8-hydroxyquinoline] | 0.387 µg/mL | 0.775 µg/mL |  | 
5 | Oc1cccc2cccnc12 [Compound 55, 8-hydroxyquinoline] | 0.387 µg/mL | 0.775 µg/mL |  | 
6 | Oc1cccc2cccnc12 [Compound 65, 8-hydroxyquinoline] | 0.775 µg/mL | 0.775 µg/mL |  | 
7 | Oc1cccc2cccnc12 [Compound 72, 8-hydroxyquinoline] | 0.775 µg/mL | 0.775 µg/mL |  | 
8 | Oc1cccc2cccnc12 [Compound 75, 8-hydroxyquinoline] | 0.775 µg/mL | 0.775 µg/mL |  | 
9 | CC[C@@H](CO)NCCN[C@@H](CC)CO [Ethambutol] |  |  | 8 µg/mL (≈ 39.2 µM) | 8 µg/mL (≈ 39.2 µM)
10 | CCc1cc(C(N)=S)ccn1 [Ethionamide] |  |  | 32 µg/mL (≈ 192 µM) | > 64 µg/mL
11 | NNC(=O)c1ccncc1 [Isoniazid (INH), Isoniazid] |  |  | > 8 µg/mL | > 8 µg/mL
12 | NC[C@H]1O[C@H](O[C@H]2[C@H](O)[C@@H](O[C@H]3O[C@H](CO)[C@@H](O)[C@H](N)[C@H]3O)[C@H](N)C[C@@H]2N)[C@H](O)[C@@H](O)[C@@H]1O [Kanamycin] |  |  | < 2 µg/mL | < 2 µg/mL
13 | CC1COc2c(N3CCN(C)CC3)c(F)cc3c(=O)c(C(=O)O)cn1c23 (stereo not shown) [Ofloxacin] |  |  | 16 µg/mL (≈ 44.3 µM) | 32 µg/mL (≈ 88.6 µM)
14 | CO[C@H]1/C=C/O[C@@]2(C)Oc3c(C)c(O)c4c(O)c(c(/C=N/N5CCN(C)CC5)c(O)c4c3C2=O)NC(=O)/C(C)=C\C=C\[C@H](C)[C@H](O)[C@@H](C)[C@@H](O)[C@@H](C)[C@H](OC(C)=O)[C@@H]1C [Rifampicin] |  |  | > 16 µg/mL | 16 µg/mL (≈ 19.4 µM)
15 | [H]/N=C(/N)N[C@H]1[C@H](O)[C@@H](O)[C@H](O[C@@H]2O[C@@H](C)[C@](O)(C=O)[C@H]2O[C@@H]2O[C@@H](CO)[C@H](O)[C@@H](O)[C@@H]2NC)[C@@H](N/C(N)=N\[H])[C@@H]1O [Streptomycin] |  |  | < 2 µg/mL | < 2 µg/mL
16 | N[C@@H]1CON=C1O [cycloserine] |  |  | 8 µg/mL (≈ 78.4 µM) | 8 µg/mL (≈ 78.4 µM)
17 | Nc1ccc(C(=O)O)c(O)c1 [p-aminosalicylate] | 16 µg/mL | 32 µg/mL |  | 
